Experimental data: US20240360091A1, “GLUN2B-SUBUNIT SELECTIVE ANTAGONISTS OF THE N-METHYL-D-ASPARTATE RECEPTORS WITH ENHANCED POTENCY AT ACIDIC PH” (Emory University, priority 2021, published 2024)
Where two headings read alike, the source gives them in different places.

Columns and labels:
[1] = target: human GluN1/GluN2B (Homo sapiens (Human), UniProt Q05586+Q13224); test: Two electrode voltage-clamp recordings from Xenopus laevis oocytes, GluN2B potency and pH dependence; format: cell-based; conditions: for pH Boost: ratio of IC50 at pH 7.6 to IC50 at pH 6.9
Description: Two Electrode Voltage-Clamp Recordings from Xenopus laevis Oocytes
Stage V-VI Xenopus laevis unfertilized oocytes were purchased from Ecocyte (Austin, Texas) and injected with 5 ng of GluN1 and 10 ng of GluN2B cRNAs. The cDNAs for human GluN1 and GluN2B, encoding NCBI reference sequences NM_007327.3 and NM_000834.3, respectively, were linearized and cRNAs made as previously described (Traynelis et al., J Neurosci, 1998, 18(16):6163-75). After injection, the oocytes were incubated in Barth's culture solution (88 mM NaCl, 1 mM KCl, 2.4 mM NaHCO3, 10 mM HEPES, 0.82 mM MgSO4, 0.33 mM Ca(NO3)2, 0.41 mM CaCl2), 10 U/mL PenStrep, and 0.1 mg/mL gentamycin, pH 7.4) at 18° C. Two electrode voltage-clamp (TEVC) recordings were made at 22-23° C., 2-7 days after the injection, using Warner OC725C amplifiers (VHOLD=−40 mV). Briefly, the oocytes were perfused in a recording solution (90 mM NaCl, 1 mM KCl, 10 mM HEPES, 0.01 mM EDTA, and 0.5 mM BaCl2) adjusted to either pH 7.6 or 6.9 by addition of NaOH or HCl, respectively (pH 6.9 solutions were prepared by addition of HCl to pH 7.6 solutions to maintain an equal concentration of Na^+ ions in both solutions). Concentration-response curves of the compounds were obtained by application of increasing concentrations of each individual compound until steady state conditions were obtained, in the presence of saturating agonist concentrations (i.e., 100 μM glutamate and 30 μM glycine). In general, oocyte recordings were made from 4-10 oocytes per experiment (i.e., oocyte injection cycle) from ≥two experiments. The concentration-response relationship for each oocyte was fit by equation (1),
Percent Response=(100−minimum)/(1+([concentration]/IC50)^nH)+minimum (1)
where minimum is the residual response in saturating concentration of each individual compound (constrained to be ≥0), and IC50 is the concentration of compound that causes half-maximal inhibition, and nH is the Hill slope.

[2] = system: horizontal locomotor activity of mice; test: Locomotor activity; format: in vivo, mouse; conditions: 0.3 mg/kg IP, two hours
Excerpt: (§1) The locomotor and rotarod studies were approved by the Georgia State University IACUC, an AAALAC accredited institution under the supervision of licensed veterinarians. Mice were group housed, provided nestlets and shelters with access to food pellets and water ad libitum under a 12-hour light/dark cycle.
For locomotor activity measurements, mice (C57B16, >90 days old, Jackson Labs) were placed in a closed (with light on) activity monitoring box for one hour to habituate prior to drug testing. After one hour, animals were removed and injected (IP) with drug and then returned to the activity monitoring box and total locomotor activity was monitored for two hours. The total number of light beam breaks in the cage (horizontal) was determined by a computer and results averaged for each drug. Results were analyzed by ANOVA and Dunnett's post hoc test to compare horizontal activity of drug-treated groups to vehicle controls. Male animals were used for these behavioral tests given only male mice were used in the MCAO transient ischemia studies.

[3] = system: nonhuman primates; conditions: acute administration; cited from earlier work
[4] = system: GluN2B; conditions: between pH 6.8 and pH 7.5; cited from earlier work
[5] = system: motor coordination of mice on rotarod; test: Rotarod performance; format: in vivo, mouse; conditions: 30 mg/kg IP, all four trials
Description: as §1
For rotarod experiments, male C57BL/6 mice (>90 days old) were tested using a Rotamax 4/8 rotarod (Columbus Instruments, Columbus, Ohio). Prior to training and testing, the mice were brought to the testing room and allowed to acclimate for two hours prior to any further handling. Mice were placed on a rotating rod (5 rpm), 3.8 cm in diameter and 8 cm wide, elevated 30 cm from the floor of a chamber. After 10 sec of rotation at a fixed velocity, the rotation was slowly accelerated from 5 to 35 rpm over a 5 min period. The duration of time that the mouse could stay on the rotarod, without hanging on for a full rotation or without falling, was recorded. Mice were trained 4 times at 25 min inter-trial intervals on each day for two days. On day three, mice were randomly assigned to treatment groups and administered test drug or vehicle (via IP administration) 25 min prior to testing (4 trials with inter-trial interval of 25 min). Individuals performing the experiment were blinded to the identity of each treatment group. Results were analyzed by ANOVA and Dunnett's post hoc test to compare duration of time on the rotating rod of drug-treated groups to the vehicle controls.

[6] = pH 6.9, read-out: IC50 (μM) pH 6.9
[7] = pH 7.6, read-out: IC50 (μM) pH 7.6

human GluN1/GluN2B, sequence (Q13224 27-1484, other chains not shown): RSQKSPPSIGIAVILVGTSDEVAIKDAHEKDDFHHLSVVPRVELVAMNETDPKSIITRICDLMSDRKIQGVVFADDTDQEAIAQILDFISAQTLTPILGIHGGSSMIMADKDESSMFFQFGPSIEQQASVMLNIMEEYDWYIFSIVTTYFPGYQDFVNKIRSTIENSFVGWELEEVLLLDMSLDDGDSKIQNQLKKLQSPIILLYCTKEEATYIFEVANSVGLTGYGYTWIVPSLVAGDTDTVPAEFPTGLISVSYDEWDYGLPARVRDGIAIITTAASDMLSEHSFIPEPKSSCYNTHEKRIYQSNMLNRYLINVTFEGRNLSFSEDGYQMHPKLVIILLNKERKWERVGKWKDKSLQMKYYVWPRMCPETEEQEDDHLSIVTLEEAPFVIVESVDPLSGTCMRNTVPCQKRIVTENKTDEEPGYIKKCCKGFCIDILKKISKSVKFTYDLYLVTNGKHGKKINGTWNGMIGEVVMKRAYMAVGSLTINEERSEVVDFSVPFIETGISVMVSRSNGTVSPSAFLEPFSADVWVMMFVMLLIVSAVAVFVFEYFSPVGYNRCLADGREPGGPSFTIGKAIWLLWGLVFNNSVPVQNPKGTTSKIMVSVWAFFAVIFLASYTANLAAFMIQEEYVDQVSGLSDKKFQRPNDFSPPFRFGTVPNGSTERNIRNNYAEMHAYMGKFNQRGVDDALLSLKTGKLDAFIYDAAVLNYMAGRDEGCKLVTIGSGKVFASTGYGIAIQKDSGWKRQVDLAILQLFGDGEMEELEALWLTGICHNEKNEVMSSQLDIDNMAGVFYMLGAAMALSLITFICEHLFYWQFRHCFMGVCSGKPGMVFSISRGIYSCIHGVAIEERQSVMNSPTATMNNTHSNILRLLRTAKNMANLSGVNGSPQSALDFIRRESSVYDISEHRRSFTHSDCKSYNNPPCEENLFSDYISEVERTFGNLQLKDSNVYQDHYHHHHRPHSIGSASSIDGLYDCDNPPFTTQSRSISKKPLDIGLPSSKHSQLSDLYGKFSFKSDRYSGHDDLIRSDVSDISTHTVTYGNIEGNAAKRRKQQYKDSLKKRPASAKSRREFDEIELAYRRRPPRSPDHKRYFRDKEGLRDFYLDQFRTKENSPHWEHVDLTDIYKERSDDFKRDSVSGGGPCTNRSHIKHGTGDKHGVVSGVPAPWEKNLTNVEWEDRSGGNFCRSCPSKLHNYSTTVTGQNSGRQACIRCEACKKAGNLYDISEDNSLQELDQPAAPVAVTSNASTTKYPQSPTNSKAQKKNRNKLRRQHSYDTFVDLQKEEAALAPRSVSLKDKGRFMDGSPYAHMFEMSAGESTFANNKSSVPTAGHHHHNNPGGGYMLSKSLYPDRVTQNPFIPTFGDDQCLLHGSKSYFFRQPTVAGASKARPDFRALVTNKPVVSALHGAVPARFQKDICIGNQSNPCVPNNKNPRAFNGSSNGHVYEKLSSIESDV

Row | Structure (SMILES) | IC50 [1, 6] [µM] | IC50 [1, 7] [µM] | pH Boost [1] | other results
1 | Cc1ccc(N2CCN(C[C@H](O)COc3ccc(O)cc3)CC2)cc1 [Compound 10040] | 0.074 | 0.26 | 3.5 | 
2 | NC(=O)Nc1ccc(OC[C@H](O)CN2CCN(c3ccc(C(F)(F)F)cc3)CC2)cc1 [Compound 10272] | 0.022 | 0.128 | 5.8 | 
3 | C[C@]12N[C@H](Cc3ccccc31)c1ccccc12 [MK-801] |  |  |  | horizontal activity compared to the vehicle control [2]: significant increase
4 | NC(=O)Nc1ccc(OC[C@@H](O)CN2CCN(c3ccc(Cl)c(Cl)c3)CC2)cc1 [Compound 10131] | 0.103 | 0.947 | 9.2 | 
5 | CCc1ccc(N2CCN(C[C@H](O)COc3ccc(NC(N)=O)cc3)CC2)cc1 [Compound 10189] | 0.094 | 1 | 10.6 | 
6 | NC(=O)Nc1ccc(OC[C@@H](O)CN2CCN(c3ccc(Cl)cc3)CC2)cc1 [Compound 10075] | 0.046 | 0.452 | 9.8 | 
7 | C[C@@H]([C@@H](O)c1ccc(O)cc1)N1CCC(O)(c2ccccc2)CC1 [traxoprodil] |  |  |  | cognitive effects in nonhuman primates [3]: produced cognitive impairments in a dose-dependent manner; pH sensitivity for inhibition of receptors [4]: does not possess a significant pH sensitivity
8 | CCCc1ccc(N2CCN(C[C@H](O)COc3ccc(NC(N)=O)cc3)CC2)cc1 [Compound 10215] | 0.13 | 1.3 | 10.0 | 
9 | Oc1ccc(OC[C@H](O)CN2CCN(c3ccccc3)CC2)cc1 [Compound 10243] | 0.071 | 0.574 | 8.1 | 
10 | NC(=O)Nc1ccc(OC[C@@H](O)CN2CCN(c3ccc(F)cc3)CC2)cc1 [Compound 10214] | 0.221 | 2.18 | 9.9 | 
11 | O=C1Cc2cc(OC[C@@H](O)CN3CCN(c4ccc(Cl)cc4)CC3)ccc2N1 [Compound 10146] | 0.029 | 0.37 | 12.8 | 
12 | O=C1CCc2cc(OC[C@@H](O)CN3CCN(c4ccc(C(F)(F)F)cc4)CC3)ccc2N1 [NP10309] | 0.111 | 0.717 | 6.5 | IC50 ([1]; pH 6.9, read-out: IC50 value at pH 6.9): 0.111 µM; IC50 ([1]; pH 7.6, read-out: IC50 value at pH 7.6): 0.717 µM
13 | NC(=O)Nc1ccc(OC[C@H](O)CN2CCN(c3ccc(Cl)cc3)CC2)cc1 [Compound 10165] | 0.019 | 0.06 | 3.2 | 
14 | CC(C)c1ccc(N2CCN(C[C@@H](O)COc3ccc(O)cc3)CC2)cc1 [Compound 10247] | 0.144 | 0.675 | 4.7 | 
15 | CC(C)c1ccc(N2CCN(C[C@H](O)COc3ccc(O)cc3)CC2)cc1 [Compound 10082] | 0.356 | 1.37 | 3.8 | 
16 | CS(=O)(=O)Nc1ccc(OC[C@H](O)CN2CCN(c3ccc(F)c(F)c3)CC2)cc1 [Compound 10233] | 0.047 | 0.294 | 6.3 | potency against GluN2B compared to corresponding S enantiomer [1]: lower potency

Row | Structure (SMILES) | IC50 [1, 6] [µM] | IC50 [1, 7] [µM] | pH Boost [1] | other results
17 | CS(=O)(=O)Nc1ccc(OC[C@@H](O)CN2CCN(c3ccc(F)c(F)c3)CC2)cc1 [Compound 93-108] | 0.031 | 0.558 | 18.0 | 
18 | CCCc1ccc(N2CCN(C[C@@H](O)COc3ccc(NC(N)=O)cc3)CC2)cc1 [Compound 10224] | 0.034 | 0.171 | 5.0 | 
19 | Oc1ccc(OC[C@H](O)CN2CCN(c3ccc(F)c(F)c3)CC2)cc1 [Compound 10052] | 0.05 | 0.272 | 5.4 | 
20 | Oc1ccc(OC[C@@H](O)CN2CCN(c3ccc(F)c(F)c3)CC2)cc1 [Compound 10030] | 0.087 | 0.978 | 11.2 | 
21 | CCCCc1ccc(N2CCN(C[C@@H](O)COc3ccc(O)cc3)CC2)cc1 [Compound 10249] | 0.549 | 3.42 | 6.2 | potency against GluN2B compared to corresponding S enantiomer [1]: lower potency
22 | NC(=O)Nc1ccc(OC[C@H](O)CN2CCN(c3ccc(F)cc3)CC2)cc1 [Compound 10225] | 0.097 | 0.527 | 5.4 | 
23 | CCc1ccc(N2CCN(C[C@@H](O)COc3ccc(O)cc3)CC2)cc1 [Compound 10245] | 0.025 | 0.385 | 15.4 | 
24 | CC(C(O)c1ccc(O)cc1)N1CCC(Cc2ccccc2)CC1 (stereo not drawn) [ifenprodil, reference compound] |  |  |  | latency-to-fall score [5]: significant reduction
25 | CCCCc1ccc(N2CCN(C[C@H](O)COc3ccc(O)cc3)CC2)cc1 [Compound 10235] | 0.398 | 4.38 | 11.0 | 
26 | Cc1ccc(N2CCN(C[C@@H](O)COc3ccc(O)cc3)CC2)cc1 [Compound 10244] | 0.047 | 0.305 | 6.5 | 
27 | NC(=O)Nc1ccc(OC[C@H](O)CN2CCN(c3ccc(Cl)c(Cl)c3)CC2)cc1 [Compound 10166] | 0.03 | 0.132 | 4.4 | 
28 | CCc1ccc(N2CCN(C[C@@H](O)COc3ccc(NC(N)=O)cc3)CC2)cc1 [Compound 10222] | 0.052 | 0.183 | 3.5 | 
29 | Oc1ccc(OC[C@@H](O)CN2CCN(c3ccccc3)CC2)cc1 [Compound 10039] | 0.217 | 0.476 | 2.2 | 
30 | O=C1Cc2cc(OC[C@H](O)CN3CCN(c4ccc(Cl)cc4)CC3)ccc2N1 [Compound 10228] | 0.121 | 0.592 | 4.9 | potency against GluN2B compared to corresponding S enantiomer [1]: lower potency
31 | CCc1ccc(N2CCN(C[C@H](O)COc3ccc(O)cc3)CC2)cc1 [Compound 10171] | 0.046 | 0.316 | 6.9 | 
32 | NC(=O)Nc1ccc(OC[C@@H](O)CN2CCN(c3ccc(C(F)(F)F)cc3)CC2)cc1 [Compound 10294] | 0.03 | 0.209 | 7.0 | 
